Results on 24 compounds are retold here after PubChem BioAssay AID256 (DTP/NCI, 2004).

Toxic doses and inconclusive results are not listed.

This test concerns CD2F1 mice, L1210 leukemia ip, survival T/C. Nature of the test: NCI In Vivo Anticancer Drug Screen. Data for tumor model L1210 Leukemia (intraperitoneal) in CD2F1 (CDF1) mice. As to conditions: higher = longer survival. In short, it runs like this:
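Activity against a transplanted murine tumor was judged by comparing the compound group with a vehicle group. The outcome in the treated animals was divided by that in the controls.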

Setting [1] is: endpoint: mean survival time, dose: 12.5 mg/kg/injection, schedule: Q01DX009 (ip), vehicle: other.
The mark [2] stands for this setting: endpoint: mean survival time, dose: 25.0 mg/kg/injection, schedule: Q01DX009 (ip), vehicle: other.
The mark [3] stands for this setting: endpoint: mean survival time, dose: 100.0 mg/kg/injection, schedule: Q04DX003 (ip), vehicle: saline with Tween-80.
The mark [4] stands for this setting: endpoint: mean survival time, dose: 200.0 mg/kg/injection, schedule: Q04DX003 (ip), vehicle: saline with Tween-80.
Where [5] appears, read: endpoint: mean survival time, dose: 100.0 mg/kg/injection, schedule: Q01DX001 (ip), vehicle: saline with Tween-80.
Setting [6] is: endpoint: mean survival time, dose: 100.0 mg/kg/injection, schedule: Q01DX009 (ip), vehicle: saline with Tween-80.
Where [7] appears, read: endpoint: mean survival time, dose: 200.0 mg/kg/injection, schedule: Q01DX001 (ip), vehicle: saline with Tween-80.
Where [8] appears, read: endpoint: mean survival time, dose: 200.0 mg/kg/injection, schedule: Q01DX009 (ip), vehicle: saline with Tween-80.
Where [9] appears, read: endpoint: mean survival time, dose: 400.0 mg/kg/injection, schedule: Q01DX001 (ip), vehicle: saline with Tween-80.
The mark [10] stands for this setting: endpoint: mean survival time, dose: 12.5 mg/kg/injection, schedule: Q01DX005 (ip), vehicle: water.
Where [11] appears, read: endpoint: mean survival time, dose: 25.0 mg/kg/injection, schedule: Q01DX005 (ip), vehicle: water.
[12] abbreviates: endpoint: mean survival time, dose: 50.0 mg/kg/injection, schedule: Q01DX005 (ip), vehicle: water.
The mark [13] stands for this setting: endpoint: mean survival time, dose: 100.0 mg/kg/injection, schedule: Q01DX005 (ip), vehicle: water.
[14] abbreviates: endpoint: mean survival time, dose: 200.0 mg/kg/injection, schedule: Q01DX005 (ip), vehicle: water.
Where [15] appears, read: endpoint: mean survival time, dose: 5.0 mg/kg/injection, schedule: Q04DX003 (ip), vehicle: saline with Tween-80.
[16] abbreviates: endpoint: mean survival time, dose: 10.0 mg/kg/injection, schedule: Q04DX003 (ip), vehicle: saline with Tween-80.
Setting [17] is: endpoint: mean survival time, dose: 20.0 mg/kg/injection, schedule: Q04DX003 (ip), vehicle: saline with Tween-80.
[18] abbreviates: endpoint: mean survival time, dose: 75.0 mg/kg/injection, schedule: Q01DX001 (ip), vehicle: saline.
Where [19] appears, read: endpoint: mean survival time, dose: 150.0 mg/kg/injection, schedule: Q01DX001 (ip), vehicle: saline.
[20] abbreviates: endpoint: mean survival time, dose: 12.5 mg/kg/injection, schedule: Q04DX003 (ip), vehicle: saline with Tween-80.
[21] abbreviates: endpoint: mean survival time, dose: 25.0 mg/kg/injection, schedule: Q04DX003 (ip), vehicle: saline with Tween-80.
The mark [22] stands for this setting: endpoint: mean survival time, dose: 400.0 mg/kg/injection, schedule: Q04DX003 (ip), vehicle: saline with Tween-80.

`c1ccc(C[Se]Cc2ccccc2)cc1`: the T/C (endpoint: mean survival time, dose: 6.25 mg/kg/injection, schedule: Q01DX009 (ip), vehicle: other) was 102 % of control; the T/C under setting [1] is 97 % of control; the T/C under setting [2] was 97 % of control; the T/C (endpoint: mean survival time, dose: 25.0 mg/kg/injection, schedule: Q04DX003 (ip), vehicle: other) was 101 % of control; the T/C (endpoint: mean survival time, dose: 50.0 mg/kg/injection, schedule: Q04DX003 (ip), vehicle: other) was 87 % of control.
Consider `Cc1nc2c(NC(=O)CCl)nn(C)c2nc1C`, for which the T/C under setting [3] is 98 % of control and the T/C under setting [4] was 95 % of control.
For the compound `CCOC(=O)Cc1ccnc(C)c1`, the T/C is 93 % of control under setting [5]; 100 % of control under setting [6]; 94 % of control under setting [7]; 103 % of control under setting [8]; 96 % of control under setting [9].
Turning to `N#CC1(C2(C#N)CCCCC2)CCCCC1`, the T/C reads like this: (endpoint: mean survival time, dose: 100.0 mg/kg/injection, schedule: Q01DX001 (ip), vehicle: Klucel (hydroxypropylcellulose) (HPC)) 116 % of control; (endpoint: mean survival time, dose: 200.0 mg/kg/injection, schedule: Q01DX001 (ip), vehicle: Klucel (hydroxypropylcellulose) (HPC)) 92 % of control; (endpoint: mean survival time, dose: 400.0 mg/kg/injection, schedule: Q01DX001 (ip), vehicle: Klucel (hydroxypropylcellulose) (HPC)) 100 % of control.
For `COc1ncnc2c1cnn2C1OC(CO)C(O)C1O` (centres undefined), the T/C is 94 % of control under setting [10]; 96 % of control under setting [11]; 96 % of control under setting [12]; 104 % of control under setting [13]; 107 % of control under setting [14].
On to `CCC[CH2][Sn]1([CH2]CCC)[O]C(=O)C2CC=CCC2C(=O)[O]1` (centres undefined), for which the T/C by setting is: (endpoint: mean survival time, dose: 100.0 mg/kg/injection, schedule: Q01DX001 (ip), vehicle: saline) 102 % of control; (endpoint: mean survival time, dose: 200.0 mg/kg/injection, schedule: Q01DX001 (ip), vehicle: saline) 104 % of control.
For the compound `COc1ccccc1N1C(=O)C=CC1=O`, the T/C runs as follows: under setting [15], 98 % of control; under setting [16], 100 % of control; under setting [17], 95 % of control.
For the compound `O=C1CC(=Nc2ccccc2)CC(=O)N1`, the T/C by setting is: under setting [1], 102 % of control; under setting [2], 105 % of control; (endpoint: mean survival time, dose: 50.0 mg/kg/injection, schedule: Q01DX009 (ip), vehicle: other) 91 % of control; (endpoint: mean survival time, dose: 100.0 mg/kg/injection, schedule: Q01DX009 (ip), vehicle: other) 89 % of control; (endpoint: mean survival time, dose: 200.0 mg/kg/injection, schedule: Q01DX009 (ip), vehicle: other) 89 % of control.
In the case of `C=C1C(=O)OCC2(CC)CCCCC12` (centres undefined), the T/C was 94 % of control (endpoint: mean survival time, dose: 5.0 mg/kg/injection, schedule: Q01DX009 (ip), vehicle: water); 88 % of control (endpoint: mean survival time, dose: 10.0 mg/kg/injection, schedule: Q01DX009 (ip), vehicle: water); 96 % of control (endpoint: mean survival time, dose: 20.0 mg/kg/injection, schedule: Q01DX009 (ip), vehicle: water).
For `CCCCOC(=O)C1(N)CCCC1`, the T/C runs as follows: (endpoint: mean survival time, dose: 100.0 mg/kg/injection, schedule: Q04DX003 (ip), vehicle: saline) 110 % of control; (endpoint: mean survival time, dose: 400.0 mg/kg/injection, schedule: Q04DX003 (ip), vehicle: saline) 102 % of control.
Consider `Cn1nc(CC#N)c2c(N)ncnc21`, for which the T/C is 96 % of control under setting [10]; 93 % of control under setting [11]; 92 % of control under setting [12]; 88 % of control under setting [13]; 91 % of control under setting [14].
As to `Cc1cc(O)c(O)c(C(C)(C)CC(C)(C)C)c1`, the T/C reads like this: (endpoint: mean survival time, dose: 12.5 mg/kg/injection, schedule: Q01DX009 (ip), vehicle: saline + alcohol) 100 % of control; (endpoint: mean survival time, dose: 25.0 mg/kg/injection, schedule: Q01DX009 (ip), vehicle: saline + alcohol) 97 % of control; (endpoint: mean survival time, dose: 50.0 mg/kg/injection, schedule: Q01DX009 (ip), vehicle: saline + alcohol) 103 % of control; (endpoint: mean survival time, dose: 100.0 mg/kg/injection, schedule: Q04DX003 (ip), vehicle: saline + alcohol) 105 % of control; (endpoint: mean survival time, dose: 200.0 mg/kg/injection, schedule: Q04DX003 (ip), vehicle: saline + alcohol) 103 % of control; (endpoint: mean survival time, dose: 400.0 mg/kg/injection, schedule: Q04DX003 (ip), vehicle: saline + alcohol) 100 % of control.
For `CCCCCCCCCCCCCCP(=O)(O)O`, the T/C reads like this: (endpoint: mean survival time, dose: 75.0 mg/kg/injection, schedule: Q01DX001 (ip), vehicle: other) 92 % of control; (endpoint: mean survival time, dose: 150.0 mg/kg/injection, schedule: Q01DX001 (ip), vehicle: other) 98 % of control; (endpoint: mean survival time, dose: 300.0 mg/kg/injection, schedule: Q01DX001 (ip), vehicle: other) 96 % of control.
As for `Nc1cc(S(=O)(=O)c2ccc(N3CCCCC3)c(N)c2)ccc1N1CCCCC1`, the T/C is, setting by setting: under setting [6], 110 % of control; under setting [8], 113 % of control.
Take `NCCN1CCc2ccccc2C1`: the T/C runs as follows: (endpoint: mean survival time, dose: 6.25 mg/kg/injection, schedule: Q04DX003 (ip), vehicle: saline) 101 % of control; (endpoint: mean survival time, dose: 12.5 mg/kg/injection, schedule: Q04DX003 (ip), vehicle: saline) 106 % of control; (endpoint: mean survival time, dose: 25.0 mg/kg/injection, schedule: Q04DX003 (ip), vehicle: saline) 101 % of control.
For the compound `CCN(CC)C(=S)SC`, the T/C reads like this: under setting [18], 104 % of control; under setting [19], 106 % of control.
In the case of `CN1CC(=O)C(=N)C1=S`, the T/C under setting [5] is 90 % of control, the T/C under setting [7] was 93 % of control and the T/C under setting [9] is 90 % of control.
On to `CC(=O)OC1CC2CC(O)(C(=O)CO)CC2C2CCC3=CC(=O)CC3C(C)(O)C12` (centres undefined), for which the T/C is, setting by setting: under setting [18], 91 % of control; under setting [19], 96 % of control; (endpoint: mean survival time, dose: 300.0 mg/kg/injection, schedule: Q01DX001 (ip), vehicle: saline) 95 % of control.
Regarding `CC(=O)OC1COC(n2nnc3c(-c4ccccc4)c(C)nn32)C(OC(C)=O)C1OC(C)=O` (centres undefined), the T/C by setting is: (endpoint: median survival time, dose: 12.5 mg/kg/injection, schedule: Q01DX005 (ip), vehicle: Klucel (hydroxypropylcellulose) (HPC)) 112 % of control; (endpoint: median survival time, dose: 25.0 mg/kg/injection, schedule: Q01DX005 (ip), vehicle: Klucel (hydroxypropylcellulose) (HPC)) 104 % of control; (endpoint: median survival time, dose: 50.0 mg/kg/injection, schedule: Q01DX005 (ip), vehicle: Klucel (hydroxypropylcellulose) (HPC)) 97 % of control; (endpoint: median survival time, dose: 100.0 mg/kg/injection, schedule: Q01DX005 (ip), vehicle: Klucel (hydroxypropylcellulose) (HPC)) 100 % of control; (endpoint: median survival time, dose: 200.0 mg/kg/injection, schedule: Q01DX005 (ip), vehicle: Klucel (hydroxypropylcellulose) (HPC)) 95 % of control.
Turning to `CCOC(=O)C([NH-])C([NH-])C(=O)OCC.[Cl][Pt+2][Cl]` (centres undefined), the T/C under setting [20] is 186 % of control and the T/C under setting [21] is 195 % of control.
As for `Clc1ccc(C[P+](c2ccccc2)(c2ccccc2)c2ccccc2)c(Cl)c1`, the T/C is, setting by setting: (endpoint: mean survival time, dose: 5.0 mg/kg/injection, schedule: Q01DX009 (ip), vehicle: saline sonified) 103 % of control; under setting [15], 92 % of control; under setting [16], 96 % of control; under setting [20], 100 % of control; under setting [17], 108 % of control; under setting [21], 93 % of control.
In the case of `Cc1cn([C@@H]2C[C@H](CO)[C@@H](O)C2)c(=O)[nH]c1=O`, the T/C is, setting by setting: (endpoint: mean survival time, dose: 133.0 mg/kg/injection, schedule: Q01DX009 (ip), vehicle: saline) 118 % of control; (endpoint: mean survival time, dose: 200.0 mg/kg/injection, schedule: Q01DX009 (ip), vehicle: saline) 121 % of control; (endpoint: mean survival time, dose: 450.0 mg/kg/injection, schedule: Q01DX009 (ip), vehicle: saline) 106 % of control.
As to `CN(C)/C=N/NC(=O)c1ccccc1O`, the T/C under setting [3] was 98 % of control, the T/C under setting [4] was 100 % of control and the T/C under setting [22] is 100 % of control.
In the case of `N/C(=N\N=C\c1c(F)c(F)c(F)c(F)c1F)N[N+](=O)[O-]`, the T/C runs as follows: under setting [3], 106 % of control; under setting [4], 98 % of control; under setting [22], 96 % of control.
